The target of the assay is T1, human Kv3.1 channels (hKv3.1) (Homo sapiens, UniProt P48547).
T1 construct: expressed in transfected cells
T1 sequence (P48547 1-511): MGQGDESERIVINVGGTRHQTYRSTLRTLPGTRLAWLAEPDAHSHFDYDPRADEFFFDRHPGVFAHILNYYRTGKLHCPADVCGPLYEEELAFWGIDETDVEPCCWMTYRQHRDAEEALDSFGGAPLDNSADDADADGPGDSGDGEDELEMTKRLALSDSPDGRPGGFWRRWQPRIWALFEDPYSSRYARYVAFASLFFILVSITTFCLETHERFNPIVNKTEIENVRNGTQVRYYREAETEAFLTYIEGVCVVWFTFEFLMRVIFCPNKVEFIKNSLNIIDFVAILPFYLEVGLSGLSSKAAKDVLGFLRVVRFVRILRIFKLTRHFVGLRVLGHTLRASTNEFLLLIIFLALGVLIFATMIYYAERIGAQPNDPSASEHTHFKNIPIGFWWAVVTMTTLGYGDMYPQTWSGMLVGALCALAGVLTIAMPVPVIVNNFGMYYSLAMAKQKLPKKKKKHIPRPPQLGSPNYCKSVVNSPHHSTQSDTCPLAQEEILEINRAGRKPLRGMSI
Description: Kv3.1 channel modulation, IonWorks Quattro planar array electrophysiology. The note with it: for Kv3.1 max R %: normalised to maximum effect of 50 microM reference compound. It is filed as cell-based.

[1] abbreviates: HEK-293 cells expressing human Kv3.1, currents at −15 mV voltage step, normalised to 50 microM reference compound and vehicle.
[2] abbreviates: HEK-293 cells expressing human Kv3.1, currents at −15 mV voltage step, normalised to 50 microM reference compound and vehicle, read-out: Kv3.1 pEC50 (converted).
The mark [3] stands for this setting: HEK-293 cells expressing human Kv3.1.

The structures appear in SMILES notation. Like-named read-outs stand apart in the source and are kept apart here.

As to `CC[C@H]1NC(=O)N(c2ccc(Oc3ccc(C)c4c3C3(CC3)CO4)nc2N)C1=O` [Example 2, (5R)-3-[2-amino-6-(7-methylspiro[2H-benzofuran-3,1′-cyclopropane]-4-yl)oxy-3-pyridyl]-5-ethyl-imidazolidine-2,4-dione], the “Kv3.1 pEC50” value under setting [1] is listed as 6.3. For the same molecule, under setting [2], the EC50 is 501 nM. Also, the “Kv3.1 max R %” value under setting [3] was 161%. Taken in the same sequence, the figures for `CC1(C)NC(=O)N(c2ccc(Oc3cccc4c3C3(CC3)CO4)nc2N)C1=O` [Example 3, 3-(2-amino-6-spiro[2H-benzofuran-3,1′-cyclopropane]-4-yloxy-3-pyridyl)-5,5-dimethyl-imidazolidine-2,4-dione] were 6.3, 501 nM and 159%. Take `CC[C@H]1NC(=O)N(c2ccc(Oc3cccc4c3C3(CC3)CO4)nc2N)C1=O` [Example 4, (5R)-3-(2-amino-6-spiro[2H-benzofuran-3,1′-cyclopropane]-4-yloxy-3-pyridyl)-5-ethyl-imidazolidine-2,4-dione]: the “Kv3.1 pEC50” value under setting [1] amounted to 6.0. Further, the EC50 under setting [2] is 1000 nM. In addition, the “Kv3.1 max R %” value under setting [3] was 159%. Consider `CC1(C)NC(=O)N(c2ccc(Oc3cccc4c3C(C)(C)CO4)nc2N)C1=O` [Example 5, 3-[2-amino-6-[(3,3-dimethyl-2H-benzofuran-4-yl)oxy]-3-pyridyl]-5,5-dimethyl-imidazolidine-2,4-dione], for which the EC50 under setting [2] is 631 nM. Further, the “Kv3.1 max R %” value under setting [3] is recorded as 152%. For `COc1cccc(Oc2ccc(N3C(=O)NC(C)(C)C3=O)c(N)n2)c1` [Example 6, 3-[2-amino-6-(3-methoxyphenoxy)-3-pyridyl]-5,5-dimethyl-imidazolidine-2,4-dione], the EC50 under setting [2] was 12600 nM. For the same molecule, the “Kv3.1 max R %” value under setting [3] is recorded as 89%. On to `Cc1ccc(Oc2ccc(N3C(=O)NC(C)(C)C3=O)c(N)n2)cc1OC(F)(F)F` [Example 7, 3-[2-amino-6-[4-methyl-3-(trifluoromethoxy)phenoxy]-3-pyridyl]-5,5-dimethyl-imidazolidine-2,4-dione], for which the “Kv3.1 pEC50” value under setting [1] amounted to 5.6. Under setting [2], the EC50 was 2510 nM. Further, the “Kv3.1 max R %” value under setting [3] was determined as 135%. For `CC[C@H]1NC(=O)N(c2ccc(Oc3ccc(C)c(OC(F)(F)F)c3)nc2N)C1=O` [Example 8, (5R)-3-[2-amino-6-[4-methyl-3-(trifluoromethoxy)phenoxy]-3-pyridyl]-5-ethyl-imidazolidine-2,4-dione] the same measures were 5.5, 3160 nM and 137%. With `CC1(C)NC(=O)N(c2ccc(Oc3ccc(C#N)c(OC(F)(F)F)c3)nc2N)C1=O` [Example 10, 4-[[6-amino-5-(4,4-dimethyl-2,5-dioxo-imidazolidin-1-yl)-2-pyridyl]oxy]-2-(trifluoromethoxy)benzonitrile], the “Kv3.1 pEC50” value under setting [1] came out at 5.6. Besides, under setting [2], the EC50 is 2510 nM. In addition, under setting [3], the “Kv3.1 max R %” value was 113%. Taken in the same sequence, the figures for `CC[C@H]1NC(=O)N(c2ccc(Oc3ccc(C#N)c(OC(F)(F)F)c3)nc2N)C1=O` [Example 11, 4-[[6-amino-5-[(4R)-4-ethyl-2,5-dioxo-imidazolidin-1-yl]-2-pyridyl]oxy]-2-(trifluoromethoxy)benzonitrile] were 5.5, 3160 nM and 161%. In the case of `CC(C)c1cc(Oc2ccc(N3C(=O)NC(C)(C)C3=O)c(N)n2)ccc1C#N` [Example 12, 4-[[6-amino-5-(4,4-dimethyl-2,5-dioxo-imidazolidin-1-yl)-2-pyridyl]oxy]-2-isopropyl-benzonitrile], the EC50 under setting [2] is 2000 nM. In addition, the “Kv3.1 max R %” value under setting [3] came out at 175%.

`CC[C@H]1NC(=O)N(c2ccc(Oc3ccc(C#N)c(C(C)C)c3)nc2N)C1=O` [Example 13, 4-[[6-amino-5-[(4R)-4-ethyl-2,5-dioxo-imidazolidin-1-yl]-2-pyridyl]oxy]-2-isopropyl-benzonitrile]: the “Kv3.1 pEC50” value under setting [1] was 5.5. Further, under setting [2], the EC50 was 3160 nM. For the same molecule, the “Kv3.1 max R %” value under setting [3] was 161%.

With `Cc1ccc(Oc2ccc(N3C(=O)NC(C)(C)C3=O)c(N)n2)c2c1OCC2(C)C` [Example 14, 3-[2-amino-6-[(3,3,7-trimethyl-2H-benzofuran-4-yl)oxy]-3-pyridyl]-5,5-dimethyl-imidazolidine-2,4-dione], under setting [2], the EC50 is 501 nM. The “Kv3.1 max R %” value under setting [3] stood at 165%. Turning to `Cc1ccc(Oc2ccc(N3C(=O)NC(C)(C)C3=O)cn2)c2c1OCC21CC1` [Reference Example 1, reference compound], the EC50 is 2510 nM. For the molecule `Cc1ccc(Oc2ccc(N3C(=O)NC(C)(C)C3=O)c(C)n2)c2c1OCC21CC1` [Reference Example 3, reference compound], the EC50 under setting [2] was 1580 nM. `CC1(C)NC(=O)N(c2ccc(Oc3cccc4c3C3(CC3)CO4)nc2)C1=O` [Reference Example 4, reference compound]: the EC50 under setting [2] was 31600 nM. Same read-out and setting: for `COc1nc(Oc2cccc3c2C2(CC2)CO3)ccc1N1C(=O)NC(C)(C)C1=O` [Reference Example 5, reference compound] the value was 3980 nM.

`Cc1ccc(Oc2ccc(N3C(=O)NC(C)(C)C3=O)cn2)cc1OC(F)(F)F` [Reference Example 6, reference compound] gave an EC50 of 10000 nM. Turning to `COc1nc(Oc2ccc(C)c(OC(F)(F)F)c2)ccc1N1C(=O)NC(C)(C)C1=O` [Reference Example 7, reference compound], the EC50 under setting [2] was 12600 nM. Same read-out and setting: for `Cc1ccc(Oc2ccc(N3C(=O)NC(C)(C)C3=O)c(C)n2)cc1OC(F)(F)F` [Reference Example 8, reference compound] the value was 6310 nM; for `COc1nc(Oc2ccc(C#N)c(OC(F)(F)F)c2)ccc1N1C(=O)NC(C)(C)C1=O` [Reference Example 9, reference compound], 12600 nM; for `CC[C@H]1NC(=O)N(c2ccc(Oc3ccc(C)c4c3C3(CC3)CO4)nc2OC)C1=O` [Reference Example 11, reference compound], 1260 nM. Same read-out and setting: for `CC[C@H]1NC(=O)N(c2ccc(Oc3ccc(C)c4c3C3(CC3)CO4)nc2C)C1=O` [Reference Example 12, reference compound] the value was 631 nM. On the same count and under the same terms, for `CC[C@H]1NC(=O)N(c2ccc(Oc3cccc4c3C3(CC3)CO4)nc2OC)C1=O` [Reference Example 14, reference compound] the value was 2000 nM. As for `CC[C@H]1NC(=O)N(c2ccc(Oc3ccc(C)c(OC(F)(F)F)c3)nc2)C1=O` [Reference Example 15, reference compound], under setting [2], the EC50 is 2510 nM. The same measure, in the same setting: in the case of `CC[C@H]1NC(=O)N(c2ccc(Oc3ccc(C)c(OC(F)(F)F)c3)nc2OC)C1=O` [Reference Example 16, reference compound] it was 7940 nM.

`CC[C@H]1NC(=O)N(c2ccc(Oc3ccc(C)c(OC(F)(F)F)c3)nc2C)C1=O` [Reference Example 17, reference compound]: the EC50 under setting [2] is 5010 nM. Take `CC[C@H]1NC(=O)N(c2ccc(Oc3ccc(C#N)c(OC(F)(F)F)c3)nc2OC)C1=O` [Reference Example 18, reference compound]: the EC50 under setting [2] is 10000 nM. The same measure, in the same setting: for `CC[C@H]1NC(=O)N(c2ccc(Oc3ccc(C#N)c(C(C)C)c3)nc2)C1=O` [Reference Example 19, reference compound] the value was 1260 nM.

The record behind these values is patent US20260199309A1, “COMPOUNDS FOR THE TREATMENT OF CENTRA NERVOUS SYSTEM DISORDERS” (Autifony Therapeutics Limited, priority 2022, published 2026).
